The values that follow come from paper PMC9191647 (Neuropharmacology, 2019).

The test system of data set [1] is male C57BL/6J mice. The settings on record: HTR, cited from earlier work; for ED50 μg/kg (95% CI): hemitartrate (2:1) salt.
Another data set deals with human 5-HT2A receptor (Homo sapiens, UniProt P28223). Description: Competitive radioligand binding.
The target of the next data set is human 5-HT2B (h5-HT2B) (Homo sapiens, UniProt P41595). The data set is described as follows: Gq-mediated calcium flux in Flp-In T-REx 293 cells. It counts as cell-based. The settings on record: for agonist activity: Ca^2+ flux. For orientation: A change in cytosolic calcium serves as a functional read-out for many receptors and channels.
The target in the next data set is T1, human 5-HT2C receptor (Homo sapiens, UniProt P28335).
T1 sequence (P28335 33-458): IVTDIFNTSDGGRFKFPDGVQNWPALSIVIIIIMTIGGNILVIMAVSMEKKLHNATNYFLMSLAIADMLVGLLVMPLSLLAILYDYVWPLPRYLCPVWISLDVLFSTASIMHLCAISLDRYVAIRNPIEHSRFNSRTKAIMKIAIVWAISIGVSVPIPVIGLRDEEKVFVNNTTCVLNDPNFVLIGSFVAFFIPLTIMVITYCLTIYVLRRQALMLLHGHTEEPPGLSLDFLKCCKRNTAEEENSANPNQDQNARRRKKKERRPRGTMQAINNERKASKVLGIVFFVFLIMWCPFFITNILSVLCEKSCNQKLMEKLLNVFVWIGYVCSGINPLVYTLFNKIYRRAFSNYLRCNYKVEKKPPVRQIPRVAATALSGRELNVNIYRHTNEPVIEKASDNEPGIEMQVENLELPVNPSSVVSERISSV
The data set is described as follows: biochemical. It counts as binding.

The target of a further data set is human 5-HT2A (h5-HT2A) (Homo sapiens, UniProt P28223). The data set is described as follows: Gq-mediated calcium flux in Flp-In T-REx 293 cells. It counts as cell-based. The settings on record: for EC50: Ca^2+ flux; for Emax % 5-HT: percent 5-HT maximum response.
In data set [2] the target is T2, human 5-HT2C INI (h5-HT2C) (Homo sapiens, UniProt P28335).
T2 sequence (P28335 33-458): T1 sequence (P28335 33-458)
It counts as cell-based. The settings on record: h5-HT2C, Ca^2+ flux.

A further data set addresses T3, human 5-HT1A receptor (Homo sapiens, UniProt P08908).
T3 sequence (P08908 1-422): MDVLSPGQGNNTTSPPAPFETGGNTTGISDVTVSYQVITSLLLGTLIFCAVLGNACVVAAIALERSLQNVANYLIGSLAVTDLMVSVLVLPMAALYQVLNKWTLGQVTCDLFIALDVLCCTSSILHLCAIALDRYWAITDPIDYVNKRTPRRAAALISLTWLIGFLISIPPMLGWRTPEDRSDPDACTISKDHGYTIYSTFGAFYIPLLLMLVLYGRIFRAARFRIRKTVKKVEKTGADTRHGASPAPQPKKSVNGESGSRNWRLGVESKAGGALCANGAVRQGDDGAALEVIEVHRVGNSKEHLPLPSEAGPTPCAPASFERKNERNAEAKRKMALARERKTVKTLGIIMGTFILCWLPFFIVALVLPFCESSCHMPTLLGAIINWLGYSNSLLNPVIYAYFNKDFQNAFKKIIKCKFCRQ
Description: Competitive radioligand binding. The settings on record: for fold lower affinity than LSD for the 5-HT1A receptor: human 5-HT1A, relative to LSD.

In a further data set the target is mouse 5-HT2A (m5-HT2A) (Mus musculus, UniProt P35363). The data set is described as follows: Gq-mediated calcium flux in Flp-In T-REx 293 cells. It counts as cell-based. The settings on record: for Emax % 5-HT: percent 5-HT maximum response.
For data set [3] the following is noted: cited from earlier work.
The next data set relates to human subjects. The settings on record: humans, cited from earlier work; for active doses: ref Rothlin (1957).
The next data set addresses 5-HT2A. The settings on record: ref Johnson et al., 1994, cited from earlier work; for Ki: human 5-HT2A receptor vs. [^3H] ketanserin.
For the next data set, the system named is mice. The settings on record: quantal scoring; ref Corne and Pickering (1967); cited from earlier work.
Data set [4] concerns male C57BL/6J mice. Description: Head-twitch response. The data set is classed as in vivo, mouse. The settings on record: for HTR Counts (mean ± SEM): 30 min session; for HTR induced by ALD-52 after M100,907 pretreatment: 0.1 mg/kg M100,907 SC pretreatment, then 0.3 mg/kg ALD-52; for ED50: Mus musculus.
[5] abbreviates: ref Halberstadt and Geyer (2013).

In general, Ki refers to the dissociation constant of the complex between target and ligand, obtained from inhibition or displacement. What is called EC50 is the concentration giving half of the maximal effect.

Where “and” joins values, the source holds several entries; their conditions need not be identical. Equal entries are not always repeated. Where two headings read alike, the source gives them in different places.

Chain of human 5-HT2A (h5-HT2A) (P28223 whole entry): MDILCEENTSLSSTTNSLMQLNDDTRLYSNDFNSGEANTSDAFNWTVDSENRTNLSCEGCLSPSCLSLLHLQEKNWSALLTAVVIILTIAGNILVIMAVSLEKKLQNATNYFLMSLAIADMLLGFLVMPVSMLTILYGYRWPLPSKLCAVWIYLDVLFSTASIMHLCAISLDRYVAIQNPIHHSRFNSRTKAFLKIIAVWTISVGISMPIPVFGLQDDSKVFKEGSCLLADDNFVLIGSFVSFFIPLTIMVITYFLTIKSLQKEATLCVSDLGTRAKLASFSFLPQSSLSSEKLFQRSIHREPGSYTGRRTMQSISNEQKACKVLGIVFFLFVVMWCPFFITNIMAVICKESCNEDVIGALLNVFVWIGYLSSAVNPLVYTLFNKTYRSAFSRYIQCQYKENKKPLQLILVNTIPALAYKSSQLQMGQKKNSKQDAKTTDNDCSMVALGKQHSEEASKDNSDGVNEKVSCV
Chain of mouse 5-HT2A (m5-HT2A) (P35363 whole entry): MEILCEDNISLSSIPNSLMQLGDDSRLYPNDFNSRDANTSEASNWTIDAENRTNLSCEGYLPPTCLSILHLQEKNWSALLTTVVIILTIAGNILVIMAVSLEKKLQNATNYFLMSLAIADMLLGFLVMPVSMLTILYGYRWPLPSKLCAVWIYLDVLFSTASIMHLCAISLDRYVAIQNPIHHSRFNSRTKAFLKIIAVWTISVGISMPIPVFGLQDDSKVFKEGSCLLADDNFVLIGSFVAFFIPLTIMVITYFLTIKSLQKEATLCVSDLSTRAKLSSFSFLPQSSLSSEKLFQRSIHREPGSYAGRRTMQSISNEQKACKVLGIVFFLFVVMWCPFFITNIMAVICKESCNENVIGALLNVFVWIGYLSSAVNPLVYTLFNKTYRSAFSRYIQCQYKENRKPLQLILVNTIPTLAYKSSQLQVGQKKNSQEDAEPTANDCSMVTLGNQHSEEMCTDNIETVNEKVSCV
Chain of human 5-HT2B (h5-HT2B) (P41595 whole entry): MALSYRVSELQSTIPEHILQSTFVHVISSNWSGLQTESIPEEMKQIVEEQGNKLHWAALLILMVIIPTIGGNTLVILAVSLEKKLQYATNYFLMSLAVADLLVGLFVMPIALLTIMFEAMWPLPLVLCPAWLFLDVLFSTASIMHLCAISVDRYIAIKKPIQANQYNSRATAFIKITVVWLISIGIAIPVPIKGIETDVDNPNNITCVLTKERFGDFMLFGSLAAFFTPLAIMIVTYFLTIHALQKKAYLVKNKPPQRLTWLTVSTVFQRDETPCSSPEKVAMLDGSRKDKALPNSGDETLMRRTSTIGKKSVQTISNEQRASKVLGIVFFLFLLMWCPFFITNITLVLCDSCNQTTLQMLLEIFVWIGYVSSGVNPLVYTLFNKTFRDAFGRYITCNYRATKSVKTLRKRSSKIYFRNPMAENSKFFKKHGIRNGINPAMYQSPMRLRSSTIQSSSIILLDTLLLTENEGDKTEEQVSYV
Chain of human 5-HT2A receptor (P28223 whole entry): as the sequence (P28223 whole entry) above

As to `CCC(=O)n1cc2c3c(cccc31)C1=C[C@@H](C(=O)N(CC)CC)CN(C)[C@@H]1C2` [1P-LSD, 1-propanoyl-D-lysergic acid diethylamide], the “ED50 μg/kg (95% CI)” value in the data set with male C57BL/6J mice [1] (ref Brandt et al. (2016)) is on record as 158.9 (65.0–388.8) μg/kg. For the same compound, the “ED50 nmol/kg (95% CI)” value in the data set on male C57BL/6J mice [1] (ref Brandt et al. (2016)) is listed as 349.6 (143.0–855.4) nmol/kg. Also, the “Molar potency (relative to LSD)” value is reported as “one-third” in the data set with male C57BL/6J mice [1] (ref Brandt et al. (2016)) and 0.38 in the data set on male C57BL/6J mice [1] (ref Brandt et al. (2016), listed as 1-Propanoyl-LSD). Further, the Ki was found to be 196 ± 19 nM on human 5-HT2A receptor, 13 ± 1.7 nM at human 5-HT2C receptor and 637 ± 97 nM on human 5-HT1A receptor. Also, the agonist activity entry (on human 5-HT2B (h5-HT2B); in data set [2]) was “no agonist activity” in each case. Moreover, the EC50 at human 5-HT2A (h5-HT2A) (EC50, nM) is 11 nM; on human 5-HT2A (h5-HT2A) (pEC50 ± SEM), 10.2 nM. The “Emax % 5-HT” value is 11 % 5-HT and 11 ± 1 % 5-HT on human 5-HT2A (h5-HT2A); 23 ± 1 % 5-HT at mouse 5-HT2A (m5-HT2A). At human 5-HT1A receptor, the “fold lower affinity than LSD for the 5-HT1A receptor” value is on record as 67 fold.
On to `CCN(CC)C(=O)[C@@H]1C=C2c3cccc4[nH]cc(c34)C[C@H]2N(C)C1` [LSD, D-lysergic acid diethylamide, reference compound], for which, in the data set on male C57BL/6J mice [1] (setting [5]), the “ED50 μg/kg (95% CI)” value was 52.9 (38.9–72.0) μg/kg. For the same compound, in the data set with male C57BL/6J mice [1] (setting [5]), the “ED50 nmol/kg (95% CI)” value is 132.8 (97.6–180.7) nmol/kg. Moreover, the “Emax % 5-HT” value is 78 ± 2 % 5-HT at human 5-HT2B (h5-HT2B) (percent 5-HT maximum response, N.A. = No Activity); 94 % 5-HT and 94 ± 1 % 5-HT on human 5-HT2A (h5-HT2A); 86 ± 3 % 5-HT on mouse 5-HT2A (m5-HT2A). For the same compound, the “peak plasma level of LSD” value in data set [3] (humans, intravenous 2 μg/kg LSD, ref Aghajanian and Bing (1964)) is on record as 9.5 ng/mL. Also, the LSD in plasma in [3] (participants who had ingested 200 μg, ref Dolder et al., 2016) was 4.5 ng/mL. Moreover, in the data set on human subjects, the active doses was 0.0005 to 0.001 mg/kg. Moreover, the EC50 at mouse 5-HT2A (m5-HT2A) (Ca^2+ flux) came to 4.25 nM. The “pEC50 ± SEM” value on mouse 5-HT2A (m5-HT2A) (Ca^2+ flux) is listed as 8.37 ± 0.10.
For the compound `CN1C[C@H](C(=O)NC2CCCCC2)C[C@@H]2c3cccc4[nH]cc(c34)C[C@H]21` [LY193525], the Ki on 5-HT2A was 0.73 nM.
With `CCN(CC)C(=O)[C@@H]1C=C2c3cccc4c3c(cn4C(C)=O)C[C@H]2N(C)C1` [ALD-52, 1-Acetyl-D-lysergic acid diethylamide], the Ki on human 5-HT2A receptor is 174 ± 43 nM; at human 5-HT2C receptor, 10.2 ± 3.5 nM; at human 5-HT1A receptor it was 1050 nM. Further, the agonist activity result (on human 5-HT2B (h5-HT2B); in data set [2]) was “no agonist activity” each time. The EC50 at human 5-HT2A (h5-HT2A) (EC50, nM) is 38 nM; at human 5-HT2A (h5-HT2A) (pEC50 ± SEM) it was 35.5 nM; on mouse 5-HT2A (m5-HT2A) (EC50, nM, Ca^2+ flux), 12 nM; on mouse 5-HT2A (m5-HT2A) (pEC50 ± SEM, Ca^2+ flux), 11.5 nM. For the same compound, the “Emax % 5-HT” value at human 5-HT2A (h5-HT2A) was 25 % 5-HT and 25 ± 2 % 5-HT; on mouse 5-HT2A (m5-HT2A) it was 29 ± 1 % 5-HT. Further, the “fold lower affinity than LSD for the 5-HT1A receptor” value on human 5-HT1A receptor came out at 111 fold. Also, the figures for the “potency relative to LSD” value with human subjects (ref Abramson (1959)) and in the data set on human subjects (ref Isbell et al. (1959)) were 91% and “equipotent”, respectively. Moreover, the active doses with human subjects is 0.0005 to 0.001 mg/kg. Also, in the data set with mice, the “induction of head twitches in mice” value is given as “does not induce head twitches”. In addition, the “HTR Counts (mean ± SEM)” value is recorded as 8.4 ± 1.6 in the data set on male C57BL/6J mice [4] (0.03 mg/kg IP), 12.6 ± 1.1 with male C57BL/6J mice [4] (0.1 mg/kg IP) and 25.4 ± 3.2 in the data set on male C57BL/6J mice [4] (0.3 mg/kg IP). The “HTR induced by ALD-52 after M100,907 pretreatment” value in the data set with male C57BL/6J mice [4] is given as “did not induce head twitches”. Further, in the data set on male C57BL/6J mice [4] (HTR), the “Molar potency (relative to LSD)” value came to 0.45. Also, the ED50 in the data set with male C57BL/6J mice [4] (read-out: ED50 nmol/kg (95% CI)) came out at 297 nmol/kg; in the data set with male C57BL/6J mice [4] (read-out: ED50 μg/kg (95% CI)), 131 µg/kg.
On to `CC(C)n1cc2c3c(cccc31)[C@H]1C[C@@H](C(=O)NC3CCCCC3)CN(C)[C@@H]1C2` [amersergide], for which the Ki at 5-HT2A was 16.2 nM. In addition, in the data set on 5-HT2A (human 5-HT2A receptor), the “fold lower affinity than LY193525” value was ~ 20 fold.
For the compound `COc1cccc([C@H](O)C2CCN(CCc3ccc(F)cc3)CC2)c1OC` [M100,907, reference compound], the “HTR induced by ALD-52 after M100,907 pretreatment” value in the data set with male C57BL/6J mice [4] is “blocked”.
